This is an account of results in US9273038B2, “Solid forms of an ion channel modulator” (Gilead Sciences, Inc., priority 2014, dated 2016).

Series [1] in a line: Stable form screen: solubility in single and binary solvents (HPLC, external standard). Type of series: physicochemical. Here is the method: In order to determine whether other polymorphs of Compound I exist, a stable form screen was conducted. […] As a result, slurries were typically produced in non-polar solvents. Table 1). Slurries were also generated in solvent combinations with n-heptane (Table 2) and cyclohexane (Table 3). In cases where a slurry was formed, Form I was isolated after agitation for 1 day and 3 weeks.

The nature of series [2]: Hydrate screen in ethanol/water and isopropanol/water: solubility and relative form stability. Format: physicochemical. The settings on record: 5 days, started from Form I. The procedure: A hydrate screen starting from Form I was also conducted to evaluate whether hydrates of Compound I exist. The hydrate screen was conducted in ethanol/water (Table 6) and isopropanol/water (Table 7) mixtures, and in both cases, a new polymorph of Compound I was discovered (denoted as Form III).
From the initial hydrate screens presented in Table 6 and Table 7 no apparent trends were observed. In this case, all slurries of Form I in EtOH/water or IPA/water mixtures remained unchanged after 2 weeks (Table 8 and Table 9). Since Form III has been observed previously under the same conditions, it was suspected that the lack of form conversion is mainly due to slow kinetics. […] Attempts to determine the relative stability between Forms I and III at lower water activities were unsuccessful since Form I either was too soluble or oiled out at water activities of 0.8 or below.

The test system of series [3] is late sodium current (INaL). The settings on record: as described in WO 2013/006485; cited from earlier work.
A further series in a line: pKa. Format: physicochemical.

Take `O=C1c2cc(-c3ccc(OC(F)(F)F)cc3)ccc2OCCN1Cc1ncccn1` [Compound I, 4-(pyrimidin-2-ylmethyl)-7-(4-(trifluoromethoxy)phenyl)-3,4-dihydrobenzo[f][1,4]oxazepin-5(2H)-one]: the “Solubility (mg/g) (3 weeks)” value in series [1] (2-MeTHF/n-heptane (1:5) v/v, slurry, solid Form I) was 6.7 mg/g; in series [1] (Cyclohexane, slurry, solid Form I), 2.4 mg/g; in series [1] (IPA/n-heptane (1:4) v/v, slurry, solid Form I) it was 20.0 mg/g; in series [1] (IPA, homogenous), more than 300 mg/g; in series [1] (IPE, slurry, solid Form I), 21.5 mg/g; in series [1] (MTBE/n-heptane (1:2) v/v, slurry, solid Form I), 5.4 mg/g. The “Solubility (mg/g) (3 weeks)” value in series [1] (MTBE, homogenous) is listed as more than 240 mg/g; in series [1] (MeCN, homogenous) it was more than 350 mg/g; in series [1] (Toluene/n-heptane (1:3) v/v, slurry, solid Form I), 7.1 mg/g; in series [1] (Toluene, homogenous) it was more than 500 mg/g; in series [1] (Water, slurry, solid Form I), 0 mg/g; in series [1] (iPrOAc/n-heptane (1:3) v/v, slurry, solid Form I), 18.9 mg/g. Moreover, the “Solubility (mg/g) (3 weeks)” value in series [1] (n-Heptane, slurry, solid Form I) was 0.9 mg/g; in series [1] (t-amyl alcohol/n-heptane (1:3) v/v, slurry, solid Form I), 17.5 mg/g. For the same molecule, the “Solubility (mg/g) (1 day)” value in series [1] (EtOAc/cyclohexane (1:3) v/v, 1 day, slurry, solid Form I) is recorded as 86 mg/g. Also, the “Solubility in organic solvents (in words)” value in series [1] (many organic solvents) is given as “highly soluble”. Further, the “Solubility” value in series [2] (10% EtOH in water (volume), water activity >0.9, solid found Form I) was found to be 0 mg/g; in series [2] (10% IPA in water (volume), water activity >0.9, solid found Form III), 0 mg/g; in series [2] (20% EtOH in water (volume), water activity 0.8-0.9, solid found Form III), 0.05 mg/g; in series [2] (20% IPA in water (volume), water activity >0.9, solid found Form I), 0 mg/g; in series [2] (25% IPA in water (volume), water activity >0.9, solid found Form III) it was 0.5 mg/g; in series [2] (30% EtOH in water (volume), water activity 0.8-0.9, solid found Form I), 0.6 mg/g. In series [3], the “Late sodium current inhibition (in words)” value is given as “selective late sodium current inhibitor”. For the same molecule, the pKa in the series “pKa” was less than 2.
